For experiment [1], the system named is human multiple myeloma cells (MM.1R). Briefly: Anti-proliferation assay (ATPLite, 72 h). It is filed as cell-based. The arrangement: key: S = lnfX·lnfY·ΣIdata(Idata−ILoewe), volume over Loewe additivity. The method in brief:
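ATPLite luminescence readout; ANBL6 medium + 10 ng/ml IL-6. Single agents tested at 12 concentrations, 2- or 3-fold serial dilutions. % inhibition vs untreated-well mean.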

The test system of experiment [2] is ANBL6 MM cell line. Briefly: Anti-proliferation assay (ATPLite, 72 h). It is filed as cell-based, human. The settings on record: CGS-21680 × PDE inhibitor. The method, then: (§1) ANBL6 and INA-6 culture media was also supplemented with 10 ng/ml IL-6. […] MM.1S, MM.1R, OCI-ly10, Karpas 422, and SU-DHL6 cells were provided by the Dana Farber Cancer Institute. H929, RPMI-8226, GA-10, and Farage cells were from ATCC (Cat #'s CCL-155, CRL-9068, CRL-2392 and CRL-2630 respectively). MOLP-8, EJM, KSM-12-PE, and OPM2 were from DSMZ. The ANBL6 and INA-6 cell lines were provided by the M. D. Anderson Cancer Research Center. Compounds were prepared in DMSO at 1000× the highest desired concentration. Master plates were generated consisting of serially diluted compounds in 2- or 3-fold dilutions in 384-well format. For single agent dose response curves, the master plates consisted of 9 individual compounds at 12 concentrations in 2- or 3-fold dilutions. For combination matrices, master plates consisted of individual compounds at 6 or 9 concentrations at 2- or 3-fold dilutions. […] To obtain combination data, two master plates were diluted into the assay plates. […] Thirty microliters of ATPLite (Perkin Elmer) at room temperature was then added to each well. […] Measurements were taken at the top of the well using a luminescence aperture and a read time of 0.1 seconds per well. The percent inhibition (% I) for each well was calculated using the following formula: % I=[(avg. untreated wells-treated well)/(avg. untreated wells)]×100. […] Negative inhibition values result from local variations in treated wells as compared to untreated wells. […] The uncertainty of each fitted parameter was estimated from the range over which the change in reduced chi-squared was less than one, or less than minimum reduced chi-squared if that minimum exceeded one, to allow for underestimated σI errors. Single agent curve data were used to define a dilution series for each compound to be used for combination screening in a 6×6 matrix format. […] The Loewe additivity model was used to quantify combination effects. […] A “Synergy Score” was also used, where the Synergy Score S=log fX log fY ΣIdata(Idata-ILoewe), summed over all non-single-agent concentration pairs, and where log fX,Y is the natural logarithm of the dilution factors used for each single agent. This effectively calculates a volume between the measured and Loewe additive response surfaces, weighted towards high inhibition and corrected for varying dilution factors. An uncertainty σS was calculated for each synergy score, based on the measured errors for the Idata values and standard error propagation.

The test system of experiment [3] is EJM MM cell line. Kind of experiment: Anti-proliferation assay (ATPLite, 72 h). The class given is cell-based, human. The settings on record: CGS-21680 × PDE inhibitor. As for the experimental part: as §1
(In general: ATP-based viability assays read luminescence as a measure of living cells.)

Experiment [4] deals with INA-6 MM cell line. Briefly: Anti-proliferation assay (ATPLite, 72 h). The settings on record: CGS-21680 × PDE inhibitor. The class given is cell-based, human. The method, then: as §1
The test system of experiment [5] is KSM-12-PE MM cell line. Briefly: Anti-proliferation assay (ATPLite, 72 h). Conditions: CGS-21680 × PDE inhibitor. It is filed as cell-based, human. As for the experimental part:
as §1

Experiment [6] deals with MOLP-8 MM cell line. Kind of experiment: Anti-proliferation assay (ATPLite, 72 h). Conditions: CGS-21680 × PDE inhibitor. The class given is cell-based, human. As for the experimental part:
as §1

Experiment [7] concerns OPM2 MM cell line. Kind of experiment: Anti-proliferation assay (ATPLite, 72 h). It is filed as cell-based, human. Conditions: CGS-21680 × PDE inhibitor. As for the experimental part: as §1
Experiment [8] relates to human multiple myeloma cells (MM.1R) transfected with siRNA. Briefly: Anti-proliferation assay after siRNA transfection. It is filed as cell-based. As for the experimental part: siRNA to adenosine receptor A1, A2A, A3, PDE 2A, PDE 3B, PDE 4B, PDE 4D and PDE 7A, and control siRNA siCON were purchased from Dharmacon. A2B siRNA was purchased from Invitrogen. Electroporations were performed using an Amaxa Nucleoporator (program S-20) and solution V. siRNAs were used at 50 nM. […] RNA was isolated using Qiagen RNAeasy kits, and targets quantified by RT-PCR using gene specific primers purchased from Applied Biosystems.
Cells were added to 384-well plates 24 hours prior to compound addition such that each well contained 2000 cells in 35 μL of media. Master plates were diluted 100× (1 μL into 100 μL) into 384-well dilution plates containing only cell culture media. 4.5 μL from each dilution plate was added to each assay plate for a final dilution of 1000×. To obtain combination data, two master plates were diluted into the assay plates. Following compound addition, assay plates were kept at 37° C. and 5% CO2 for 72 hours. Thirty microliters of ATPLite (Perkin Elmer) at room temperature was then added to each well. Final amount of ATP was quantified within 30 minutes using ATPLite luminescent read-out on an Envision 2103 Multilabel Reader (Perkin Elmer). Measurements were taken at the top of the well using a luminescence aperture and a read time of 0.1 seconds per well.
We also examined the antiproliferative activity of adenosine receptor agonists when the MM cell line MM.1R was transfected with siRNA targeting the A1, A2A, A2B or A3 receptor. Specific gene silencing (A1, A2A, A2B, or A3) was greater than 50% as determined by real time PCR analysis 48 hours post-transfection. At 48 hours post-transfection, cells were exposed to adenosine receptor agonist, incubated an additional 72 hours, and compounds assayed for antiproliferative activity. Representative data is in Table 34. Cells transfected with adenosine receptor siRNA or a control siRNA (scrambled sequences designed so that cellular transcriptsare not targeted) were treated with the adenosine receptor agonist ADAC. […] Similar results were obtained with a second siRNA with specificity for different region of the A2A receptor mRNA, confirming that the reduction in adenosine receptor agonist activity is the result of specific siRNA targeting of the A2A receptor (data not shown).
In our experiments, PDE gene silencing was always greater than 50% as confirmed by real time PCR analysis 48 hours post-transfection. At 48 hours post-transfection, cells were exposed to adenosine receptor agonist and PDE inhibitor, incubated an additional 72 hours, and compounds assayed for antiproliferative activity. Representative data is in Tables 39-45. For each analysis, the activity of cells transfected with an siRNA targeting a specific PDE was compared to cells transfected with a control non-targeting siRNA (siCON).

Setting [9] is: in combination with adenosine receptor agonist CGS-21680, MM.1R.
[10] abbreviates: in combination with adenosine receptor agonist regadenoson, MM.1R.

Structures are written as SMILES. Counter-ions that a name gives are not always drawn.

For the compound `COc1cc(-c2ccc(=O)[nH]n2)ccc1OC(F)F` [Zardaverine, 6-(4-(difluoromethoxy)-3-methoxyphenyl)-3(2H)-Pyridazinone], the synergy score amounted to 2.15 in experiment [1] (setting [9]); 1.49 in experiment [1] (setting [10]); 2.11 in experiment [2]; 0.98 in experiment [3]; 2.69 in experiment [4]; 0.49 in experiment [5]. In addition, the synergy score is recorded as 3.06 in experiment [6] and 1.15 in experiment [7].
Consider `COc1cc2c(cc1OC)-c1cc(=Nc3c(C)cc(C)cc3C)n(C)c(=O)n1CC2` [Trequinsin hydrochloride, 2,3,6,7-tetrahydro-9,10-dimethoxy-3-methyl-2-((2,4,6-trimethylphenyl)imino)-4H-pyrimido(6,1-a)isoquinolin-4-one], for which the synergy score in experiment [1] (in combination with adenosine receptor agonist ADAC, MM.1R) came out at 6.47; in experiment [1] (setting [9]), 6.57; in experiment [1] (in combination with adenosine receptor agonist HE-NECA, MM.1R) it was 4.329; in experiment [1] (setting [10]) it was 2.8; in experiment [2], 4.55; in experiment [3], 4.81. The synergy score in experiment [4] stood at 3.93; in experiment [5], 2.44; in experiment [6], 4.7; in experiment [7], 4.74.
Turning to `NCCNC(=O)Cc1ccc(NC(=O)Cc2ccc(Nc3ncnc4c3ncn4[C@@H]3O[C@H](CO)[C@@H](O)[C@H]3O)cc2)cc1` [ADAC, N-(4-(2-((4-(2-((2-aminoethyl)amino)-2-oxoethyl)phenyl)amino)-2-oxoethyl)phenyl)-Adenosine], the Antiproliferative activity in experiment [8] (A1 siRNA, ADAC 0.013 μM) worked out at 18%; in experiment [8] (A1 siRNA, ADAC 0.063 μM), 16%; in experiment [8] (A1 siRNA, ADAC 0.51 μM) it was 41%; in experiment [8] (A1 siRNA, ADAC 1 μM), 52%; in experiment [8] (A2A siRNA, ADAC 0.013 μM) it was 12%; in experiment [8] (A2A siRNA, ADAC 0.063 μM), 6.7%. Further, the Antiproliferative activity worked out at 19% in experiment [8] (A2A siRNA, ADAC 0.51 μM); 24% in experiment [8] (A2A siRNA, ADAC 1 μM); 17% in experiment [8] (A2B siRNA, ADAC 0.013 μM); 12% in experiment [8] (A2B siRNA, ADAC 0.063 μM); 40% in experiment [8] (A2B siRNA, ADAC 0.51 μM); 53% in experiment [8] (A2B siRNA, ADAC 1 μM). The Antiproliferative activity in experiment [8] (A3 siRNA, ADAC 0.013 μM) was found to be 22%; in experiment [8] (A3 siRNA, ADAC 0.063 μM) it was 18%; in experiment [8] (A3 siRNA, ADAC 0.51 μM) it was 46%; in experiment [8] (A3 siRNA, ADAC 1 μM) it was 54%; in experiment [8] (control siRNA, ADAC 0.013 μM), 19%; in experiment [8] (control siRNA, ADAC 0.063 μM), 15%. The Antiproliferative activity in experiment [8] (control siRNA, ADAC 0.51 μM) was found to be 43%; in experiment [8] (control siRNA, ADAC 1 μM), 54%. For the same compound, the “antiproliferative activity after siRNA silencing” value in experiment [8] (MM.1R, siRNA that targeted the A2A receptor) is on record as “reduced”; in experiment [8] (MM.1R, siRNA to the A1, A2B, or A3 receptor), “did not affect ADAC activity”.
As for `CCCCC#Cc1nc(N)c2ncn([C@@H]3O[C@H](C(=O)NCC)[C@@H](O)[C@H]3O)c2n1` [HE-NECA, hexynyladenosine-5′-N-ethylcarboxamide], the Antiproliferative activity in experiment [8] (A2A siRNA, HE-NECA 0.5 μM) was determined as 30%; in experiment [8] (A2A siRNA, HE-NECA 1 μM), 29%; in experiment [8] (A2A siRNA, HE-NECA 2 μM), 38%; in experiment [8] (A2A siRNA, HE-NECA 4.1 μM), 40%; in experiment [8] (MM.1R, siRNA targeting PDE 2A, HE-NECA 1.25 nM, R-(−)-Rolipram 0 μM) it was 36; in experiment [8] (MM.1R, siRNA targeting PDE 2A, HE-NECA 5 nM, R-(−)-Rolipram 0 μM), 51. Moreover, the Antiproliferative activity in experiment [8] (MM.1R, siRNA targeting PDE 2A, HE-NECA 10 nM, R-(−)-Rolipram 0 μM) was determined as 55; in experiment [8] (MM.1R, siRNA targeting PDE 2A, HE-NECA 20 nM, R-(−)-Rolipram 0 μM), 68; in experiment [8] (MM.1R, siRNA targeting PDE 2A, HE-NECA […], R-(−)-Rolipram 0 μM), 48; in experiment [8] (control siRNA, HE-NECA 0.5 μM), 68%; in experiment [8] (control siRNA, HE-NECA 1 μM), 68%; in experiment [8] (control siRNA, HE-NECA 2 μM), 73%. Besides, in experiment [8] (control siRNA, HE-NECA 4.1 μM), the Antiproliferative activity amounted to 74%. Moreover, the “effect of A2A receptor silencing on agonist activity” value in experiment [8] (MM.1R, A2A siRNA) is “strong effect”.

The values are drawn from patent publication US20090047243A1, “COMBINATIONS FOR THE TREATMENT OF B-CELL PROLIFERATIVE DISORDERS” (priority 2007, published 2009).
